According to US20260061066A1, “ANTI-GRP78 ANTIBODY, IMMUNOCONJUGATE AND USES THEREOF” (UCT BIOSCIENCE CO., LTD., priority 2024, published 2026):
Each block holds one molecule with its values, some of them ahead of it.

Columns and labels:
THP-1 cells = experiment: In-vitro cytotoxicity, CCK-8 assay; assay type: cell-based, human; settings: THP-1 (AML), cell viability after 48 hours
Experimental: (§1) In-Vitro cytotoxicity assays of GID10-ADC, DM1 and GID10 on HL-60, HCC1806, MDA-MB-231, Raji, RPMI8226, NCI-H929, MM.1S, G-361, THP-1, PL45, AsPC-1, KLM-1, OV90, 4Tl and EL-4 cells. Cell viability was measured after 48 hours using Cell Counting Kit-8 (CCK-8) assay (DOJINDO™, Cat. No. CK04-13), as shown in Table 3. For example, on Day 0, THP-1 cells were seeded at […] cells per well in a 96-well plate and treated with diluted test compounds. The cells were incubated for 48 hours at 37° C. with 5% CO2. On Day 2, 20 μl of CCK-8 was added to each well, followed by incubation for 1-4 hours. Absorbance at 450 nm was then measured to assess cell viability and the impact of the test compounds. […] Cell viability was measured after 48 hours using the Cell Counting Kit-8 (CCK-8) assay (DOJINDO™, Cat. No. CK04-13). IC50 (M) was calculated to determine the efficacy of the antibody, DM1, and ADC on the various cancer cell lines.
(§2) In-Vitro cytotoxicity assays of Dxd-conjugated ADC and free payload Dxd on THP-1, NCI-N87, Capan-1, and KLM-1 cells. Cell viability was measured after 48 hours using Cell Counting Kit-8 (CCK-8) assay (DOJINDO™, Cat. No. CK04-13), as shown in Table 4. […] Absorbance at 450 nm was then measured to assess cell viability and the impact of the test compounds. […] Cell viability was measured after 48 hours using the Cell Counting Kit-8 (CCK-8) assay (DOJINDO™, Cat. No. CK04-13). […]

KLM-1 = experiment: In-vitro cytotoxicity, CCK-8 assay; assay type: cell-based; settings: KLM-1 (pancreatic cancer), cell viability after 48 hours
Experimental: as §1, §2

H460 = experiment: In-vitro cytotoxicity, CCK-8 assay; assay type: cell-based; settings: H460 (lung cancer); cell viability after 48 hours
MM.1S = experiment: In-vitro cytotoxicity, CCK-8 assay; assay type: cell-based; settings: MM.1S (MM); cell viability after 48 hours
Experimental: (§3) In-Vitro cytotoxicity assays of GID10-ADC, DM1 and GID10 on HL-60, HCC1806, MDA-MB-231, Raji, RPMI8226, NCI-H929, MM.1S, G-361, THP-1, PL45, AsPC-1, KLM-1, OV90, 4Tl and EL-4 cells. Cell viability was measured after 48 hours using Cell Counting Kit-8 (CCK-8) assay (DOJINDO™, Cat. No. CK04-13), as shown in Table 3. For example, on Day 0, THP-1 cells were seeded at […] cells per well in a 96-well plate and treated with diluted test compounds. The cells were incubated for 48 hours at 37° C. with 5% CO2. On Day 2, 20 μl of CCK-8 was added to each well, followed by incubation for 1-4 hours. Absorbance at 450 nm was then measured to assess cell viability and the impact of the test compounds. For suspension cells, such as HL-60, Raji, RPMI8226, NCI-H929, MM. 1S, and THP-1, 5×10^4 cells per well were inoculated into a 96-well plate. For adherent cells, such as HCC1806, MDA-MB-231, G361, PL45, AsPC-1, KLM-1, OV90, and EL-4, 1.5-5×10^3 cells per well were inoculated based on their doubling time. Adherent cells with a doubling time of less than 24 hours were seeded at 1.5×10^3 cells per well (EL-4), while those with a doubling time of more than 24 hours were seeded at 5×10^3 cells per well. […] DM1 was used as the positive control agent. The cell lines tested included HL-60, HCC1806, MDA-MB-231, Raji, RPMI8226, NCI-H929, MM.1S, G-361, THP-1, PL45, AsPC-1, KLM-1, OV90, 4T1, and EL-4 cells. Cell viability was measured after 48 hours using the Cell Counting Kit-8 (CCK-8) assay (DOJINDO™, Cat. No. CK04-13). IC50 (M) was calculated to determine the efficacy of the antibody, DM1, and ADC on the various cancer cell lines.

RPMI8226 = experiment: In-vitro cytotoxicity, CCK-8 assay; assay type: cell-based; settings: RPMI8226 (MM); cell viability after 48 hours
Experimental: as §3

Raji = experiment: In-vitro cytotoxicity, CCK-8 assay; assay type: cell-based; settings: Raji (DLBCL); cell viability after 48 hours
Experimental: as §3

NCI-H929 = experiment: In-vitro cytotoxicity, CCK-8 assay; assay type: cell-based; settings: NCI-H929 (MM); cell viability after 48 hours
Experimental: as §3

ASPC1 = experiment: In-vitro cytotoxicity, CCK-8 assay; assay type: cell-based; settings: ASPC1 (pancreatic cancer); cell viability after 48 hours
Experimental: as §3

HCC1806 = experiment: In-vitro cytotoxicity, CCK-8 assay; assay type: cell-based; settings: HCC1806 (TNBC); cell viability after 48 hours
Experimental: as §3

MDA-MB-231 = experiment: In-vitro cytotoxicity, CCK-8 assay; assay type: cell-based; settings: MDA-MB-231 (TNBC); cell viability after 48 hours
Experimental: as §3

4T1 = experiment: In-vitro cytotoxicity, CCK-8 assay; assay type: cell-based; settings: 4T1 (murine breast cancer, stage IV); cell viability after 48 hours
Experimental: as §3

G361 = experiment: In-vitro cytotoxicity, CCK-8 assay; assay type: cell-based; settings: G361 (melanoma); cell viability after 48 hours
Experimental: as §3

OV90 = experiment: In-vitro cytotoxicity, CCK-8 assay; assay type: cell-based; settings: OV90 (ovarian cancer); cell viability after 48 hours
Experimental: as §3

EL4 = experiment: In-vitro cytotoxicity, CCK-8 assay; assay type: cell-based; settings: EL4 (murine lymphoma); cell viability after 48 hours
Experimental: as §3

NCI-N87 = experiment: In-vitro cytotoxicity, CCK-8 assay; assay type: cell-based; settings: NCI-N87 (gastric cancer); cell viability after 48 hours
Experimental: (§4) In-Vitro cytotoxicity assays of Dxd-conjugated ADC and free payload Dxd on THP-1, NCI-N87, Capan-1, and KLM-1 cells. Cell viability was measured after 48 hours using Cell Counting Kit-8 (CCK-8) assay (DOJINDO™, Cat. No. CK04-13), as shown in Table 4. For example, on Day 0, THP-1 cells were seeded at 5×10^4 cells per well in a 96-well plate and treated with diluted test compounds. The cells were incubated for 48 hours at 37° C. with 5% CO2. On Day 2, 15 μl of CCK-8 was added to each well, followed by incubation for 1-4 hours. Absorbance at 450 nm was then measured to assess cell viability and the impact of the test compounds. For suspension cells, such as THP-1, 2-5×10^4 cells per well were inoculated into a 96-well plate. For adherent cells, such as NCI-N87, Capan-1, and KLM-1, 1.5-5×10^3 cells per well were inoculated based on their doubling time. As shown in FIGS. 6A-6C, THP-1, and KLM-1 cells are not killed in the presence of G1D10 antibody alone. […] Linker-Dxd was used as the positive control agent. The cell lines tested included THP-1, NCI-N87, Capan-1, and KLM-1 cells. Cell viability was measured after 48 hours using the Cell Counting Kit-8 (CCK-8) assay (DOJINDO™, Cat. No. CK04-13). IC50 (M) was calculated to determine the efficacy of the Linker-Dxd and the Dxd-conjugated ADC on the various cancer cell lines.

Capan-1 = experiment: In-vitro cytotoxicity, CCK-8 assay; assay type: cell-based; settings: Capan-1 (pancreatic cancer); cell viability after 48 hours
Experimental: as §4

[1] = target: cell surface glucose-related protein 78 (GRP78) on cancer cell lines (human) (UniProt P11021); experiment: flow cytometry, OVCAR3 cells; A488-anti-mouse-IgG alone 1.8%
cell surface glucose-related protein 78 (GRP78) on cancer cell lines (human), sequence (P11021 19-654): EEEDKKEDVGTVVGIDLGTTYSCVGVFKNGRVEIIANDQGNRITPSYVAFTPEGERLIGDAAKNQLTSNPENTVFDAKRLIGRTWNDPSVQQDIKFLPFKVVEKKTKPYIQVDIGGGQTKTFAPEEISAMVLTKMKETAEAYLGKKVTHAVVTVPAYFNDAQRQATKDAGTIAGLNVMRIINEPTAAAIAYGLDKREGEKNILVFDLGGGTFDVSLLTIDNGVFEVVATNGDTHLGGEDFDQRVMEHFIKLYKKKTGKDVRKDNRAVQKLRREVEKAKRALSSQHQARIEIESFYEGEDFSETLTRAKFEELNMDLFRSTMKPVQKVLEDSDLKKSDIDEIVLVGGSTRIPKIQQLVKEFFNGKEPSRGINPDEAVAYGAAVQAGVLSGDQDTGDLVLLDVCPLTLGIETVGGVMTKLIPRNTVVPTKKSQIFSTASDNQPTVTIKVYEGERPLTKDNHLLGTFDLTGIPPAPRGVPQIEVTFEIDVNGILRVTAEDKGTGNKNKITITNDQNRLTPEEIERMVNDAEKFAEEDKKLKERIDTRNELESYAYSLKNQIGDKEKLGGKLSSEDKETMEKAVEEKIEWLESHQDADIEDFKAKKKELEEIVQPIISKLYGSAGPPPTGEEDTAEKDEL

Molecule: COc1cc2cc(c1Cl)N(C)C(=O)C[C@H](OC(=O)[C@H](C)N(C)C(=O)CCS)[C@]1(C)O[C@H]1[C@H](C)[C@@H]1C[C@@](O)(NC(=O)O1)[C@H](OC)/C=C/C=C(\C)C2 [DM1, emtansine (DM1)]
- IC50 (THP-1 cells; Table 3): 0.00463 µM
- IC50 (KLM-1; Table 3): 0.00161 µM
- IC50 (H460): 0.00168 µM
- IC50 (MM.1S): 0.00486 µM
- IC50 (RPMI8226): 0.00179 µM
- IC50 (Raji): 0.00435 µM
- IC50 (NCI-H929): 0.00113 µM
- IC50 (ASPC1): 0.0602 µM
- IC50 (HCC1806): 0.0272 µM
- IC50 (MDA-MB-231): 0.0285 µM
- IC50 (4T1): 0.083 µM
- IC50 (G361): 0.00311 µM
- IC50 (OV90): 0.0552 µM
- IC50 (EL4): 0.00152 µM

Molecule: N-hydrozysuccinimide (NHS)-VC-para-aminobenzyl carbamate (PABC)-Dxd [Linker-Dxd]
- IC50 (NCI-N87): 0.161 µM
- IC50 (Capan-1): 0.296 µM
- IC50 (THP-1 cells; Table 4): 0.0612 µM
- IC50 (KLM-1; Table 4): 0.184 µM

- % (flow cytometry cell surface staining) [1]: 2.3%
Molecule: anti-GRP78 antibody C38 (eBioscience, Cat. No. 14-9768-82)
